Test results: PubChem BioAssay AID1745844 (Carcinogenic Potency Database (CPDB), 2022)
Several values for one entry are separate records, joined by “and”; a condition that tells them apart may be missing. Equal values may be shown once. Activity calls are given as the source filed them. The rule behind the calls is not given here.

System: rodent lifetime carcinogenesis bioassay, tumor incidence TD50
Assay: carcinogenic potency in animals, long-term in vivo studies, CPDB compilation (AID 1745844)

Question: `O=[N+]([O-])c1cccc2cccnc12` was tested. Which TD50 (rat, strain Fischer 344, females, in feed, site: forestomach, lesion: squamous-cell carcinoma, dosed 104 weeks, study length 104 weeks) did it give?
Answer: 32.8 mg/kg/day

Question: And the TD50 (rat, strain Fischer 344, females, in feed, site: forestomach, lesion: squamous-cell papilloma, dosed 104 weeks, study length 104 weeks)?
Answer: 9.55 mg/kg/day

Question: What about the carcinogen call (rat, strain Fischer 344, females, in feed, site: liver, lesion: hyperplastic nodule, dosed 104 weeks, study length 104 weeks) of the same compound?
Answer: negative (inactive)

Question: And the TD50 (rat, strain Fischer 344, males, in feed, site: forestomach, lesion: squamous-cell carcinoma, dosed 104 weeks, study length 104 weeks)?
Answer: 24.9 mg/kg/day

Question: What about the TD50 (rat, strain Fischer 344, males, in feed, site: forestomach, lesion: squamous-cell papilloma, dosed 104 weeks, study length 104 weeks) of the same compound?
Answer: 10.1 mg/kg/day

Question: And the carcinogen call (rat, strain Fischer 344, males, in feed, site: liver, lesion: hyperplastic nodule, dosed 104 weeks, study length 104 weeks)?
Answer: negative (inactive)

Question: With `O=C1CCCCC1` as the compound, how does the TD50 (mouse, strain B6C3F1, females, in drinking water, site: all sites, lesion: malignant lymphoma, dosed 104 weeks, study length 107 weeks) read?
Answer: 3690 mg/kg/day

Question: What about the TD50 (rat, strain Fischer 344, females, in drinking water, site: liver, lesion: neoplastic nodule, dosed 104 weeks, study length 107 weeks) of the same compound?
Answer: 6300 mg/kg/day

Question: What about the TD50 (rat, strain Fischer 344, males, in drinking water, site: adrenal gland, lesion: cortical adenoma, dosed 104 weeks, study length 107 weeks) of the same compound?
Answer: 929 mg/kg/day

Question: Which TD50 (rat, strain Wistar, males, in feed, site: abdomen, lesion: liposarcoma, dosed 58 weeks, study length 89 weeks) does the source give for `CCSC[C@H](N)C(=O)O` here?
Answer: 3630 mg/kg/day (inactive)

Question: And the TD50 (rat, strain Wistar, males, in feed, site: any site (literature study), lesion: several types, types named in the paper, dosed 58 weeks, study length 89 weeks)?
Answer: 3630 mg/kg/day (inactive)

Question: And the carcinogen call (rat, strain Wistar, males, in feed, site: liver, lesion: one or several types, types not named, dosed 58 weeks, study length 89 weeks)?
Answer: negative (inactive)

Question: Which results are given for `Nc1nc(N)c2nc(-c3ccccc3)c(N)nc2n1`?
Answer: TD50 (mouse, strain B6C3F1, females, in feed, site: any site (literature study), lesion: several types, types named in the paper, dosed 104 weeks, study length 104 weeks): 132 mg/kg/day and 64.4 mg/kg/day; TD50 (mouse, strain B6C3F1, females, in feed, site: liver, lesion: hepatocellular adenoma + hepatoblastoma + hepatocellular carcinoma, dosed 104 weeks, study length 104 weeks): 51.3 mg/kg/day and 45.3 mg/kg/day; TD50 (mouse, strain B6C3F1, females, in feed, site: liver, lesion: hepatocellular adenoma + hepatocellular carcinoma, dosed 104 weeks, study length 104 weeks): 51.3 mg/kg/day and 45.3 mg/kg/day; TD50 (mouse, strain B6C3F1, females, in feed, site: liver, lesion: hepatocellular adenoma, dosed 104 weeks, study length 104 weeks): 46 mg/kg/day and 45.7 mg/kg/day; TD50 (mouse, strain B6C3F1, males, in feed, site: Harderian gland, lesion: adenoma, dosed 104 weeks, study length 104 weeks): 235 mg/kg/day; TD50 (mouse, strain B6C3F1, males, in feed, site: any site (literature study), lesion: several types, types named in the paper, dosed 104 weeks, study length 104 weeks): 205 mg/kg/day and 86.7 mg/kg/day; TD50 (mouse, strain B6C3F1, males, in feed, site: liver, lesion: hepatocellular adenoma + hepatoblastoma + hepatocellular carcinoma, dosed 104 weeks, study length 104 weeks): 169 mg/kg/day and 61.2 mg/kg/day; TD50 (mouse, strain B6C3F1, males, in feed, site: liver, lesion: hepatocellular adenoma + hepatocellular carcinoma, dosed 104 weeks, study length 104 weeks): 162 mg/kg/day and 61.2 mg/kg/day; TD50 (mouse, strain B6C3F1, males, in feed, site: liver, lesion: hepatocellular adenoma, dosed 104 weeks, study length 104 weeks): 54.8 mg/kg/day; TD50 (mouse, strain B6C3F1, males, in feed, site: liver, lesion: hepatocellular carcinoma, dosed 104 weeks, study length 104 weeks): 227 mg/kg/day; TD50 (mouse, strain B6C3F1, males, in feed, site: lung, lesion: alveolar/bronchiolar adenoma + alveolar/bronchiolar carcinoma, dosed 104 weeks, study length 104 weeks): 233 mg/kg/day and 265 mg/kg/day; carcinogen call (rat, strain Fischer 344, females, in feed, site: any site (literature study), lesion: several types, types named in the paper, dosed 104 weeks, study length 104 weeks): negative (inactive); TD50 (rat, strain Fischer 344, females, in feed, site: liver, lesion: hepatocellular adenoma + hepatoblastoma + hepatocellular carcinoma, dosed 104 weeks, study length 104 weeks): 520 mg/kg/day; TD50 (rat, strain Fischer 344, males, in feed, site: liver, lesion: hepatocellular adenoma + hepatoblastoma + hepatocellular carcinoma, dosed 104 weeks, study length 104 weeks): 11.8 mg/kg/day; TD50 (rat, strain Fischer 344, males, in feed, site: liver, lesion: hepatocellular adenoma, dosed 104 weeks, study length 104 weeks): 11.8 mg/kg/day

Question: Which results are given for `C=CCCl`?
Answer: TD50 (mouse, strain B6C3F1, females, by gavage, site: any site (literature study), lesion: several types, types named in the paper, dosed 78 weeks, study length 91 weeks): 343 mg/kg/day; TD50 (mouse, strain B6C3F1, females, by gavage, site: liver, lesion: hepatocellular adenoma + hepatocellular carcinoma + neoplastic nodule, dosed 78 weeks, study length 91 weeks): 2180 mg/kg/day; TD50 (mouse, strain B6C3F1, females, by gavage, site: lung, lesion: alveolar/bronchiolar adenoma + alveolar/bronchiolar carcinoma, dosed 78 weeks, study length 91 weeks): 1250 mg/kg/day; TD50 (mouse, strain B6C3F1, females, by gavage, site: stomach, lesion: squamous-cell carcinoma + squamous-cell papilloma, dosed 78 weeks, study length 91 weeks): 706 mg/kg/day; TD50 (mouse, strain B6C3F1, males, by gavage, site: any site (literature study), lesion: several types, types named in the paper, dosed 67 weeks, study length 91 weeks): 184 mg/kg/day; TD50 (mouse, strain B6C3F1, males, by gavage, site: liver, lesion: hepatocellular adenoma + hepatocellular carcinoma + neoplastic nodule, dosed 67 weeks, study length 91 weeks): 457 mg/kg/day; TD50 (mouse, strain B6C3F1, males, by gavage, site: stomach, lesion: squamous-cell carcinoma + squamous-cell papilloma, dosed 67 weeks, study length 91 weeks): 727 mg/kg/day; TD50 (rat, strain Osborne-Mendel, females, by gavage, site: any site (literature study), lesion: several types, types named in the paper, dosed 78 weeks, study length 110 weeks): 35.2 mg/kg/day; TD50 (rat, strain Osborne-Mendel, males, by gavage, site: any site (literature study), lesion: several types, types named in the paper, dosed 78 weeks, study length 110 weeks): 28.1 mg/kg/day

Question: With `CCOc1ccc(NC(C)=O)cc1[N+](=O)[O-]` as the compound, how does the carcinogen call (mouse, strain B6C3F1, females, in feed, site: any site (literature study), lesion: several types, types named in the paper, dosed 78 weeks, study length 97 weeks) read?
Answer: negative (inactive)

Question: And the TD50 (mouse, strain B6C3F1, females, in feed, site: lung, lesion: alveolar/bronchiolar adenoma + alveolar/bronchiolar carcinoma, dosed 78 weeks, study length 97 weeks)?
Answer: 30800 mg/kg/day

Question: And the TD50 (mouse, strain B6C3F1, males, in feed, site: any site (literature study), lesion: several types, types named in the paper, dosed 78 weeks, study length 98 weeks)?
Answer: 3490 mg/kg/day

Question: What about the TD50 (mouse, strain B6C3F1, males, in feed, site: liver, lesion: hepatocellular adenoma + hepatocellular carcinoma + neoplastic nodule, dosed 78 weeks, study length 98 weeks) of the same compound?
Answer: 2270 mg/kg/day

Question: What about the TD50 (mouse, strain B6C3F1, males, in feed, site: liver, lesion: hepatocellular adenoma + hepatocellular carcinoma, dosed 78 weeks, study length 98 weeks) of the same compound?
Answer: 2270 mg/kg/day

Question: What about the carcinogen call (rat, strain Fischer 344, females, in feed, site: any site (literature study), lesion: several types, types named in the paper, dosed 78 weeks, study length 106 weeks) of the same compound?
Answer: negative (inactive)

Question: What about the TD50 (rat, strain Fischer 344, females, in feed, site: liver, lesion: hepatocellular adenoma + hepatocellular carcinoma + neoplastic nodule, dosed 78 weeks, study length 106 weeks) of the same compound?
Answer: 6240 mg/kg/day

Question: What about the carcinogen call (rat, strain Fischer 344, males, in feed, site: any site (literature study), lesion: several types, types named in the paper, dosed 78 weeks, study length 105 weeks) of the same compound?
Answer: negative (inactive)

Question: For `CCCCN(N)CCCC`, which TD50 (mouse, strain Swiss albino, females, in drinking water, site: forestomach, lesion: several types, types named in the paper, dosed 109 weeks, study length 109 weeks) is on record?
Answer: 71.5 mg/kg/day

Question: And the TD50 (mouse, strain Swiss albino, females, in drinking water, site: forestomach, lesion: squamous-cell carcinoma, dosed 109 weeks, study length 109 weeks)?
Answer: 152 mg/kg/day

Question: And the TD50 (mouse, strain Swiss albino, females, in drinking water, site: forestomach, lesion: squamous-cell papilloma, dosed 109 weeks, study length 109 weeks)?
Answer: 95.9 mg/kg/day

Question: What about the carcinogen call (mouse, strain Swiss albino, females, in drinking water, site: liver, lesion: angioma, dosed 109 weeks, study length 109 weeks) of the same compound?
Answer: negative (inactive)

Question: What about the TD50 (mouse, strain Swiss albino, females, in drinking water, site: lung, lesion: adenocarcinoma, dosed 109 weeks, study length 109 weeks) of the same compound?
Answer: 133 mg/kg/day

Question: And the TD50 (mouse, strain Swiss albino, females, in drinking water, site: lung, lesion: adenoma, dosed 109 weeks, study length 109 weeks)?
Answer: 51.5 mg/kg/day

Question: And the TD50 (mouse, strain Swiss albino, females, in drinking water, site: lung, lesion: several types, types named in the paper, dosed 109 weeks, study length 109 weeks)?
Answer: 55.5 mg/kg/day

Question: And the TD50 (mouse, strain Swiss albino, males, in drinking water, site: forestomach, lesion: several types, types named in the paper, dosed 109 weeks, study length 109 weeks)?
Answer: 84.2 mg/kg/day

Question: And the TD50 (mouse, strain Swiss albino, males, in drinking water, site: forestomach, lesion: squamous-cell carcinoma, dosed 109 weeks, study length 109 weeks)?
Answer: 317 mg/kg/day

Question: What about the TD50 (mouse, strain Swiss albino, males, in drinking water, site: forestomach, lesion: squamous-cell papilloma, dosed 109 weeks, study length 109 weeks) of the same compound?
Answer: 109 mg/kg/day

Question: What about the TD50 (mouse, strain Swiss albino, males, in drinking water, site: liver, lesion: hepatoma, benign, dosed 109 weeks, study length 109 weeks) of the same compound?
Answer: 189 mg/kg/day

Question: What about the TD50 (mouse, strain Swiss albino, males, in drinking water, site: liver, lesion: several types, types named in the paper, dosed 109 weeks, study length 109 weeks) of the same compound?
Answer: 105 mg/kg/day

Question: And the TD50 (mouse, strain Swiss albino, males, in drinking water, site: lung, lesion: adenocarcinoma, dosed 109 weeks, study length 109 weeks)?
Answer: 82.3 mg/kg/day

Question: What about the TD50 (mouse, strain Swiss albino, males, in drinking water, site: lung, lesion: adenoma, dosed 109 weeks, study length 109 weeks) of the same compound?
Answer: 44.9 mg/kg/day

Question: And the TD50 (mouse, strain Swiss albino, males, in drinking water, site: lung, lesion: several types, types named in the paper, dosed 109 weeks, study length 109 weeks)?
Answer: 38.1 mg/kg/day

Question: `Cc1ncc([N+](=O)[O-])n1C` was tested. Which TD50 (rat, strain Sprague-Dawley, females, in feed, site: any site (literature study), lesion: several types, types named in the paper, dosed 46 weeks, study length 66 weeks) did it give?
Answer: 17 mg/kg/day

Question: What about the TD50 (rat, strain Sprague-Dawley, females, in feed, site: mammary gland, lesion: fibroadenoma, dosed 46 weeks, study length 66 weeks) of the same compound?
Answer: 17 mg/kg/day

Question: What does the source list for `CCCC/C=N/N(C)C=O`?
Answer: TD50 (mouse, strain Swiss albino, females, by gavage, site: liver, lesion: hepatoma, benign, dosed 52 weeks, study length 144 weeks): 11.8 mg/kg/day; TD50 (mouse, strain Swiss albino, females, by gavage, site: lung, lesion: adenocarcinoma, dosed 52 weeks, study length 144 weeks): 9.29 mg/kg/day; TD50 (mouse, strain Swiss albino, females, by gavage, site: lung, lesion: adenoma, dosed 52 weeks, study length 144 weeks): 5.64 mg/kg/day; TD50 (mouse, strain Swiss albino, females, by gavage, site: lung, lesion: several types, types named in the paper, dosed 52 weeks, study length 144 weeks): 3.12 mg/kg/day; TD50 (mouse, strain Swiss albino, males, by gavage, site: liver, lesion: hepatoma, dosed 52 weeks, study length 134 weeks): 33.1 mg/kg/day; TD50 (mouse, strain Swiss albino, males, by gavage, site: lung, lesion: adenocarcinoma, dosed 52 weeks, study length 134 weeks): 11 mg/kg/day; TD50 (mouse, strain Swiss albino, males, by gavage, site: lung, lesion: adenoma, dosed 52 weeks, study length 134 weeks): 5.52 mg/kg/day; TD50 (mouse, strain Swiss albino, males, by gavage, site: lung, lesion: several types, types named in the paper, dosed 52 weeks, study length 134 weeks): 3.79 mg/kg/day; TD50 (mouse, strain Swiss albino, males, by gavage, site: preputial gland, lesion: several types, types named in the paper, dosed 52 weeks, study length 134 weeks): 16.2 mg/kg/day; TD50 (mouse, strain Swiss albino, males, by gavage, site: preputial gland, lesion: squamous-cell carcinoma, dosed 52 weeks, study length 134 weeks): 19.8 mg/kg/day; TD50 (mouse, strain Swiss albino, males, by gavage, site: preputial gland, lesion: squamous-cell papilloma, dosed 52 weeks, study length 134 weeks): 106 mg/kg/day
